This is an account of results in patent US8999982B2, “Pharmaceutically active compounds as Axl inhibitors” (Lead Discovery Center GmbH, priority 2010, dated 2015).

For test [1], the target named is T1, Axl (Homo sapiens (Human), UniProt P30530). The experiment in a line: Cellular Axl phosphorylation assay. To be noted: HEK293 cells transfected with Axl cDNA, 1 hour incubation. Type of test: cell-based. Here is the method: 3. Cellular Axl Phosphorylation Assay:
HEK293 embryonal kidney fibroblasts were transfected in 96 wells with a plasmid containing Axl cDNA. As transfection reagent Superfect (Qiagen) was used. Transfection of the sole vector backbone served as negative control of Axl expression. After overnight incubation the cellular supernatant was replaced with fresh medium. On the following day the Axl-expressing cells were incubated for 1 hour with a compound according to formula (I) at the suitable concentrations. […] The mesoscale technology was used for quantification.

Test [2] deals with T1, Axl. In words: Axl binding assay. Here is the method: Binding of the tracer to the kinase is detected using an EU-labeled anti-tag antibody. […] Binding of an inhibitor to the kinase competes for binding with the tracer, resulting in a loss of FRET-signal. At first a compound according to formula (I) was diluted in 20 mM Hepes pH 8.0, 1 mM DTT, 10 mM MgCl2 and 0.01% Brij35.

T1 sequence (P30530 26-894): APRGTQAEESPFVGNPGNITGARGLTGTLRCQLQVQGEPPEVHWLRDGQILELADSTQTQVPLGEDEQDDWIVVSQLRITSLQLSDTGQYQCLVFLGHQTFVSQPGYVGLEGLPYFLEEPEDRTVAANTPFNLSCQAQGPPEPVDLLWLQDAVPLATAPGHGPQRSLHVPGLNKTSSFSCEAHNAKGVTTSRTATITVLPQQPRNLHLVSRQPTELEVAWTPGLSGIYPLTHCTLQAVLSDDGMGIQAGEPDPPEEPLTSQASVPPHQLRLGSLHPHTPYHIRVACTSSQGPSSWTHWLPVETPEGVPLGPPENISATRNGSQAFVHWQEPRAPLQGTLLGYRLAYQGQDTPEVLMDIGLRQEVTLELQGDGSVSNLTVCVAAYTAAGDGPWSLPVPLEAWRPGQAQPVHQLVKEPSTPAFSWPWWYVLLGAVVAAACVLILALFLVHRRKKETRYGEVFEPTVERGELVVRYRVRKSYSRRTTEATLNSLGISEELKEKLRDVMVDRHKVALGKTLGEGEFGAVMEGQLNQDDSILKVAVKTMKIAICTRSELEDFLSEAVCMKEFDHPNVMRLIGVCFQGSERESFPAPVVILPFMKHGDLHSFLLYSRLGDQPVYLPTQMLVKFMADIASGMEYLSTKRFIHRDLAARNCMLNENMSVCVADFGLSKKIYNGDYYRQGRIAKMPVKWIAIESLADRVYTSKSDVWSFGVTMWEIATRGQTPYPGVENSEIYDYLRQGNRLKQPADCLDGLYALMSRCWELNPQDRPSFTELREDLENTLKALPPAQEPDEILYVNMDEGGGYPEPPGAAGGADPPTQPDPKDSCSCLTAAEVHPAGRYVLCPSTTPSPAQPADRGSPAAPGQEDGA

As usually defined, the IC50 is the point on the concentration scale where inhibition reaches its midpoint. `COc1cc2nccc(Oc3ccc(NC(=O)c4nn(-c5ccc(F)cc5)cc4OC(C)C)cc3)c2cc1OC` [Example 25, N-[4-[(6,7-dimethoxy-4-quinolyl)oxy]phenyl]-1-(4-fluorophenyl)-4-isopropoxy-pyrazole-3-carboxamide]: the IC50 on Axl [1] and at Axl [2] was below 500 nM in each case.
Take `COc1cc2nccc(Oc3ccc(NC(=O)c4nn(-c5ccc(F)cc5)cc4OCC4CC4)cc3)c2cc1OC` [Example 26, 4-(cyclopropylmethoxy)-N-[4-[(6,7-dimethoxy-4-quinolyl)oxy]phenyl]-1-(4-fluorophenyl)pyrazole-3-carboxamide]: the IC50 against Axl [1] and at Axl [2] was below 500 nM each time.
Consider `CCOc1cn(-c2ccc(F)cc2C)nc1C(=O)Nc1ccc(Oc2ccnc3cc(OC)c(OC)cc23)cc1` [Example 27, N-[4-[(6,7-dimethoxy-4-quinolyl)oxy]phenyl]-4-ethoxy-1-(4-fluoro-2-methyl-phenyl)pyrazole-3-carboxamide], for which the IC50 against Axl [1] and on Axl [2] was below 500 nM in each case.
Regarding `CCOc1cn(-c2ccc(F)cc2)nc1C(=O)Nc1ccc(Oc2ccnc3cc(OC)c(OC)cc23)c(C)c1` [Example 28, N-[4-[(6,7-dimethoxy-4-quinolyl)oxy]-3-methyl-phenyl]-4-ethoxy-1-(4-fluorophenyl)pyrazole-3-carboxamide], the IC50 on Axl [1] and on Axl [2] was below 500 nM each time.
Consider `COc1cc2nccc(Oc3ccc(NC(=O)c4nn(-c5ccc(F)cc5)cc4OC(C)C)cc3C)c2cc1OC` [Example 29, N-[4-[(6,7-dimethoxy-4-quinolyl)oxy]-3-methyl-phenyl]-1-(4-fluorophenyl)-4-isopropoxy-pyrazole-3-carboxamide], for which the IC50 against Axl [1] and at Axl [2] was below 500 nM each time.
For the compound `COc1cc2nccc(Oc3ccc(NC(=O)c4nn(-c5ccc(F)cc5)cc4OCC4CC4)cc3C)c2cc1OC` [Example 30, 4-(cyclopropylmethoxy)-N-[4-[(6,7-dimethoxy-4-quinolyl)oxy]-3-methyl-phenyl]-1-(4-fluorophenyl)pyrazole-3-carboxamide], the IC50 against Axl [1] and at Axl [2] was below 500 nM each time.
Consider `CCOc1cn(-c2ccc(F)cc2C)nc1C(=O)Nc1ccc(Oc2ccnc3cc(OC)c(OC)cc23)c(C)c1` [Example 31, N-[4-[(6,7-dimethoxy-4-quinolyl)oxy]-3-methyl-phenyl]-4-ethoxy-1-(4-fluoro-2-methyl-phenyl)pyrazole-3-carboxamide], for which the IC50 at Axl [1] and on Axl [2] was below 500 nM throughout.
Take `CCOc1cn(-c2ccc(F)cc2)nc1C(=O)Nc1ccc(Oc2ccnc3cc(OC)c(OC)cc23)c(Cl)c1` [Example 32, N-[3-chloro-4-[(6,7-dimethoxy-4-quinolyl)oxy]phenyl]-4-ethoxy-1-(4-fluorophenyl)pyrazole-3-carboxamide]: the IC50 against Axl [1] and at Axl [2] was below 500 nM in each case.
For `COc1cc2nccc(Oc3ccc(NC(=O)c4nn(-c5ccc(F)cc5)cc4OC(C)C)cc3Cl)c2cc1OC` [Example 33, N-[3-chloro-4-[(6,7-dimethoxy-4-quinolyl)oxy]phenyl]-1-(4-fluorophenyl)-4-isopropoxy-pyrazole-3-carboxamide], the IC50 against Axl [1] and at Axl [2] was below 500 nM each time.
As for `COc1cc2nccc(Oc3ccc(NC(=O)c4nn(-c5ccc(F)cc5)cc4OCC4CC4)cc3Cl)c2cc1OC` [Example 34, N-[3-chloro-4-[(6,7-dimethoxy-4-quinolyl)oxy]phenyl]-4-(cyclopropylmethoxy)-1-(4-fluorophenyl)pyrazole-3-carboxamide], the IC50 against Axl [1] and at Axl [2] was below 500 nM throughout.
As for `CCOc1cn(-c2ccc(F)cc2C)nc1C(=O)Nc1ccc(Oc2ccnc3cc(OC)c(OC)cc23)c(Cl)c1` [Example 35, N-[3-chloro-4-[(6,7-dimethoxy-4-quinolyl)oxy]phenyl]-4-ethoxy-1-(4-fluoro-2-methyl-phenyl)pyrazole-3-carboxamide], the IC50 against Axl [1] and on Axl [2] was below 500 nM in each case.
On to `COc1cc2nccc(Oc3ccc(NC(=O)c4nn(-c5ccc(F)cc5)cc4CCN(C)C)cc3F)c2cc1OC` [Example 36, N-(4-((6,7-dimethoxyquinolin-4-yl)oxy)-3-fluorophenyl)-4-(2-(dimethylamino)ethyl)-1-(4-fluorophenyl)-1H-pyrazole-3-carboxamide], for which the IC50 against Axl [1] and at Axl [2] was below 500 nM in each case.
For the compound `CCOc1cn(-c2ccc(F)cc2CCN(C)C)nc1C(=O)Nc1ccc(Oc2ccnc3cc(OC)c(OC)cc23)c(F)c1` [Example 37, N-[4-[(6,7-dimethoxy-4-quinolyl)oxy]-3-fluoro-phenyl]-1-[2-(2-dimethylaminoethyl)-4-fluoro-phenyl]-4-ethoxy-pyrazole-3-carboxamide], the IC50 against Axl [1] and at Axl [2] was below 500 nM in each case.
Turning to `COc1cc2c(Oc3ccc(NC(=O)c4csc(-c5ccccc5)n4)cc3F)ccnc2cc1OCCCN1CCOCC1` [Example 38, N-[3-fluoro-4-[[6-methoxy-7-(3-morpholinopropoxy)-4-quinolyl]oxy]phenyl]-2-phenyl-thiazole-4-carboxamide], the IC50 against Axl [1] and on Axl [2] was below 500 nM in each case.
Turning to `COc1cc2c(Oc3ccc(NC(=O)c4nn(C)cc4Br)cc3F)ccnc2cc1OCCCN1CCOCC1` [Example 39, 4-bromo-N-[3-fluoro-4-[[6-methoxy-7-(3-morpholinopropoxy)-4-quinolyl]oxy]phenyl]-1-methyl-pyrazole-3-carboxamide], the IC50 against Axl [1] is below 500 nM; on Axl [2], 500 to 5000 nM.
For `COc1cc2c(Oc3ccc(NC(=O)c4ccn(C)n4)cc3F)ccnc2cc1OCCCN1CCOCC1` [Example 40, N-[3-fluoro-4-[[6-methoxy-7-(3-morpholinopropoxy)-4-quinolyl]oxy]phenyl]-1-methyl-pyrazole-3-carboxamide] the same measures were below 500 nM and 500 to 5000 nM.
For `COc1cc2c(Oc3ccc(NC(=O)c4cc(C)n(C(C)(C)C)n4)cc3F)ccnc2cc1OCCCN1CCOCC1` [Example 41, 1-tert-butyl-N-[3-fluoro-4-[[6-methoxy-7-(3-morpholinopropoxy)-4-quinolyl]oxy]phenyl]-5-methyl-pyrazole-3-carboxamide] the same measures were below 500 nM and below 500 nM.
Turning to `COc1cc2c(Oc3ccc(NC(=O)c4cc(C)n(C)n4)cc3F)ccnc2cc1OCCCN1CCOCC1` [Example 42, N-[3-fluoro-4-[[6-methoxy-7-(3-morpholinopropoxy)-4-quinolyl]oxy]phenyl]-1,5-dimethyl-pyrazole-3-carboxamide], the IC50 at Axl [1] and on Axl [2] was below 500 nM each time.
As to `CCOc1cn(-c2ccc(F)cc2C)nc1C(=O)Nc1ccc(Oc2ccnc3cc(OCCCN4CCOCC4)c(OC)cc23)c(F)c1` [Example 43, 4-ethoxy-N-[3-fluoro-4-[[6-methoxy-7-(3-morpholinopropoxy)-4-quinolyl]oxy]phenyl]-1-(4-fluoro-2-methyl-phenyl)pyrazole-3-carboxamide], the IC50 on Axl [1] and on Axl [2] was below 500 nM throughout.
On to `COc1cc2c(Oc3ccc(NC(=O)c4nn(-c5ccc(F)cc5)cc4OC)cc3F)ccnc2cc1OCCCN1CCOCC1` [Example 44, N-[3-fluoro-4-[[6-methoxy-7-(3-morpholinopropoxy)-4-quinolyl]oxy]phenyl]-1-(4-fluorophenyl)-4-methoxy-pyrazole-3-carboxamide], for which the IC50 against Axl [1] and at Axl [2] was below 500 nM throughout.
Turning to `COc1cc2c(Oc3ccc(NC(=O)c4nn(-c5ccc(F)cc5)cc4OC(C)C)cc3F)ccnc2cc1OCCCN1CCOCC1` [Example 45, N-[3-fluoro-4-[[6-methoxy-7-(3-morpholinopropoxy)-4-quinolyl]oxy]phenyl]-1-(4-fluorophenyl)-4-isopropoxy-pyrazole-3-carboxamide], the IC50 against Axl [1] and on Axl [2] was below 500 nM in each case.
With `COc1cc2c(Oc3ccc(NC(=O)c4nn(-c5ccc(F)cc5)cc4OCC4CC4)cc3F)ccnc2cc1OCCCN1CCOCC1` [Example 46, 4-(cyclopropylmethoxy)-N-[3-fluoro-4-[[6-methoxy-7-(3-morpholinopropoxy)-4-quinolyl]oxy]phenyl]-1-(4-fluorophenyl)pyrazole-3-carboxamide], the IC50 against Axl [1] and on Axl [2] was below 500 nM throughout.
Turning to `CCOc1cn(-c2ccc(F)cc2Cl)nc1C(=O)Nc1ccc(Oc2ccnc3cc(OCCCN4CCOCC4)c(OC)cc23)c(F)c1` [Example 47, 1-(2-chloro-4-fluoro-phenyl)-4-ethoxy-N-[3-fluoro-4-[[6-methoxy-7-(3-morpholinopropoxy)-4-quinolyl]oxy]phenyl]pyrazole-3-carboxamide], the IC50 on Axl [1] and on Axl [2] was below 500 nM each time.
`COc1cc2c(Oc3ccc(NC(=O)c4nn(-c5ccc(F)cc5)cc4OCCN(C)C)cc3F)ccnc2cc1OCCCN1CCOCC1` [Example 48, 4-(2-dimethylaminoethoxy)-N-[3-fluoro-4-[[6-methoxy-7-(3-morpholinopropoxy)-4-quinolyl]oxy]phenyl]-1-(4-fluorophenyl)pyrazole-3-carboxamide]: the IC50 at Axl [1] and at Axl [2] was below 500 nM in each case.
With `CCOc1cn(-c2ccc(F)cc2Br)nc1C(=O)Nc1ccc(Oc2ccnc3cc(OCCCN4CCOCC4)c(OC)cc23)c(F)c1` [Example 49, 1-(2-bromo-4-fluoro-phenyl)-4-ethoxy-N-[3-fluoro-4-[[6-methoxy-7-(3-morpholinopropoxy)-4-quinolyl]oxy]phenyl]pyrazole-3-carboxamide], the IC50 against Axl [1] and at Axl [2] was below 500 nM each time.
